Experimental data published in BindingDB's records for doi:10.1016/j.ejmech.2016.03.076 (Chinese Academy of Sciences (Cas), 2016).

Experiments:
[1] = Inhibition of c-Met in human EBC-1 cells assessed as reduction in cell proliferation after 72 hrs by SRB or MTT assay
[2] = Inhibition of c-Met in human MKN45 cells assessed as reduction in cell proliferation after 72 hrs by SRB or MTT assay
[3] = Inhibition of TPR-MET in mouse BAF3 cells assessed as reduction in cell proliferation after 72 hrs by SRB or MTT assay

Row | IC50 [1] [nM] | IC50 [2] [nM] | IC50 [3] [nM] | SMILES
1 | 0.85 | 0.46 | – | Fc1ccc(-c2cnc3nnc(C(F)(F)c4ccc5ncccc5c4)n3n2)cc1
2 | 5.5 | 9.5 | 8.6 | Cn1cc(-c2ccc3nnc(C(F)(F)c4ccc5ncccc5c4)n3n2)cn1 [US9062045, Comparator No. 1 (JNJ-38877605)]
